# In patent US20250381274A1 (priority 2022, published 2025):
# Several values for one entry are separate records, joined by “and”; a condition that tells them apart may be missing. Equal entries are not always repeated. Entries after “also recorded” stand apart in the source; their conditions may differ. Where two headings read alike, the source gives them in different places.
# Tests used:
# corneal buttons = tested on: corneal buttons; parameters: species or system rabbit
# Procedure: • 3 rabbits, (n=8 pairs of 3 mm biopsy punched corneal buttons) • Laser Treatments: • Fidelity II, 1069 nm, 450 mW • Focusing: Marker/spark around, not touching the tissue • Objective: ZEISS 40X, NA=0.1463 • Z: increments 20 μm, 5 layers (several intervals) • 1stlayer 15 μm below surface of focus sparking • XY: 10 μm zigzag grid, 3 mm radius circle • With ˜12 gram compression • Motor speed 2.6 mm/s, full circle treatments: ˜25*5 mins • Sample Preparation: • −3 mm biopsy punch (1BT) • not connected to IV system • Prior to LT: 30 mins in 20% w/w Dextran 500 in PBS • 30 mins in 20% w/w ribose in DPBS (˜1.7M) • Post LT: Trypan blue is used to mark endothelium side • Imaged on the same day in DPBS • Overnight storage in DPBS in 4C fridge • 3 hrs prior to indentation, in room temp PBS • Piuma nano-indentation: • For each cornea button, the average of up to 16 indentations are acquired as
# • 3 rabbits, (n=10 pairs of 3 mm biopsy punched corneal buttons) • 3 mm biopsy punch • not connected to IV system • Treatment Protocol-1 hr submerged in 20% w/v Ribose for all samples • 1 hr of UV-A lamp irradiation (control was not under UV) • Post Treatment Trypan blue is used to mark endothelium side • Imaged on the same day in DPBS • Overnight storage in DPBS in 4C fridge • 3 hrs prior to indentation, in room temp PBS • Piuma nano-indentation: • For each cornea button, the average of up to 16 indentations are acquired as representative modulus • The average of the representative modulus are presented in appended FIGS. 1-25.
# Nano-Indentation: The corneal buttons were stored in PBS in a 4C fridge overnight for hydration equilibrium. Indentations of 5 μm depth using 29-35 μm diameter spherical indenters were performed on the anterior surface of the cornea buttons to acquire 25-second load-relaxation curves. For each button, the average of up to 16 indentations was used as the representative result. The equilibrium modulus and the viscoelastic ratio, defined as equilibrium modulus over instantaneous modulus, were calculated and compared.
# Nanoindentation: Indentations were performed on the anterior surface of the cornea buttons. The equilibrium modulus E∞, instantaneous modulus Eo, and the viscoelastic ratio E∞/Eo, were calculated and compared.
# After overnight incubation in PBS at 4C to reach equilibrium hydration, corneal buttons in Group A were allowed to return to room temperature the next morning after the respective treatment days while glued to the bottom of a petri-dish with the anterior surface of the corneal button facing upward. A displacement-controlled indenter (Piuma, Optics 11, Amsterdam, The Netherlands) was used to perform micro-indentations on top of the sample surface submerged in PBS; for each sample, multiple tests were performed following an array of 16 equally spaced (4×4) contact points with a spacing of 100 μm to 150 μm, covering roughly a 0.4×0.4 mm^2 area at the center of each corneal button. A spherical glass probe with a 34 μm radius and 0.2 N/m stiffness was used for samples in Group 1A; another spherical glass probe with a 25.5 μm radius and 4.09 N/m stiffness was used for Group 1B, 1C, 1D, and 2C. The indentation process at each contact point was comprised of three consecutive steps of loading Piezo movement of 5 μm for 2 seconds, holding time of 5 s, and unloading for 2 seconds. The load-relaxation curves obtained after indenting each point were then processed using a viscoelastic model to obtain equilibrium modulus and viscoelastic ratio following a fitting algorithm developed by Oyen.
# corneal tissues = experiment: Multiphoton/confocal imaging: autofluorescence and second harmonic generation signal; parameters: species or system rabbit; details: anterior 100 μm
# Excerpt: • The grey value of the top 100 μm (11 Z-stacks) of the cornea button was summed; • The average of the grey value summations are presented in appended FIGS. 1-25. • […] • The average of the grey value summations and Representative images at ˜600*600*100 μm in x, y, z are presented in appended FIGS. 1-25. The autofluorescence and second harmonic generation (SHG) signals of the corneal tissues in Group A were investigated to reveal the presence of CxLs and structural changes in collagenous ECM after hydration equilibrium in PBS on the same night of individual treatment days. Imaging was performed with a Nikon TI Eclipse inverted microscope using a Ti: Sapphire laser Chameleon Ultra II at 860 nm as the light source and a Nikon Apo LWD 20× objective for focusing. The emission filter was set at the FITC channel (475-650 nm, peak 525 nm) for autofluorescence signal collection and at the DAPI channel (400-600 nm, peak at 457 nm) for SHG signal collection. The XY scanning area for each sample was 635 μm by 635 μm, and Z scanning was 100 μm deep with 10 μm increments (stack of 11 images per sample). The summation of the average grey value processed in Image J at each layer was used as the representative signal strength for each sample.
# [1] = 20% ribose 1 hr + 365 nm UVA lamp 1 hr
# [2] = 20% ribose + 400 nm femtosecond laser
# [3] = 20% ribose + 1069 nm femtosecond laser
# [4] = 20% ribose + 1069 nm femtosecond laser, listed as Ribose
# [5] = ribose + 365 nm UVA lamp, listed as Ribose
# [6] = ribose + 400 nm femtosecond laser
# [7] = ribose + 1069 nm femtosecond laser
# [8] = ribose + 1069 nm femtosecond laser, listed as Ribose
smiles,measurement,setting,value
O=C[C@H](O)[C@H](O)[C@H](O)CO [ribose],instantaneous modulus change vs paired control,corneal buttons; [1],significantly increased
same,viscoelastic ratio change vs paired control (words),corneal buttons; [1],no change; also recorded: no significant E∞/Eo difference; also recorded: No significant changes; also recorded: None of the ROS-Glycation-CxL treatments produced a significant difference
same,equilibrium modulus change vs paired control (words),"corneal buttons; 20% ribose 1 hr + 365 nm UVA lamp 1 hr, coverslip",significantly increased; also recorded: significantly higher; also recorded: statistically significant differences
same,equilibrium modulus change vs paired control (words),"corneal buttons; 20% ribose 1 hr + 365 nm UVA lamp 1 hr, coverslip, listed as Ribose",significantly increased
same,viscoelastic ratio change vs paired control (words),"corneal buttons; 20% ribose 1 hr + 365 nm UVA lamp 1 hr, listed as Ribose",not significantly changed
same,equilibrium modulus change vs paired control (words),corneal buttons; [2],significantly higher; also recorded: statistically significant differences
same,viscoelastic ratio change vs paired control (words),corneal buttons; [2],No significant changes; also recorded: None of the ROS-Glycation-CxL treatments produced a significant difference
same,equilibrium modulus change vs paired control (words),corneal buttons; [3],significantly higher; also recorded: statistically significant differences
same,instantaneous modulus change vs paired control,corneal buttons; [3],significantly increased
same,viscoelastic ratio change vs paired control (words),corneal buttons; [3],No significant changes; also recorded: None of the ROS-Glycation-CxL treatments produced a significant difference
same,equilibrium modulus change vs paired control (words),corneal buttons; [4],significantly increased
same,viscoelastic ratio change vs paired control (words),corneal buttons; [4],not significantly changed
same,equilibrium modulus,"corneal buttons; Group 1A: 20% ribose PBS 1 hr, then 1069 nm femtosecond laser 450 mW, coverslip pressed",25 kPa and 26.7 kPa
same,equilibrium modulus,"corneal buttons; Group 1B: 20% ribose PBS 1 hr, then 400 nm femtosecond laser, coverslip pressed",60 kPa and 63.2 kPa
same,equilibrium modulus,"corneal buttons; Group 1C: 20% ribose PBS 1 hr, then 365 nm UVA lamp 1 hr, coverslip pressed",100 kPa and 115.3 kPa
same,"equilibrium modulus, 1.5 hr vs 3 hr irradiation",corneal buttons; Group 2C: ribose + 365 nm UVA lamp 1.5 hours vs 3 hours,no significant difference in mechanical properties; also recorded: no different in equilibrium modulus
same,"viscoelastic ratio, 3 hr vs 1.5 hr irradiation",corneal buttons; Group 2C: ribose + 365 nm UVA lamp 3 hours vs 1.5 hours,significantly higher viscoelastic ratio; also recorded: significant difference
same,"equilibrium modulus, fold of control's modulus",corneal buttons; ribose + 400 nm laser at 100 mW vs ribose-only control,~4.6 fold
same,"equilibrium modulus, fold of control's modulus",corneal buttons; ribose + 1060 nm laser at 450 mW vs ribose-only control,~3.8 fold
same,"equilibrium modulus, fold of paired control modulus",corneal buttons; ribose + one-hour 365 nm UVA lamp vs ribose-only control,~8.2 fold
same,equilibrium modulus,"corneal buttons; ribose-only paired controls, no light exposure",around 10 kPa
same,autofluorescence signal intensity change vs paired control (words),corneal tissues; ribose + 365 nm UVA lamp,increased significantly; also recorded: slightly increased; also recorded: Statistical significance
same,second harmonic generation signal intensity change vs paired control (words),corneal tissues; ribose + 365 nm UVA lamp,decreased significantly; also recorded: statistically significant decreases; also recorded: Statistical significance
same,autofluorescence signal intensity change vs paired control (words),corneal tissues; [5],increased
same,second harmonic generation signal intensity change vs paired control (words),corneal tissues; [5],decreased
same,autofluorescence signal intensity change vs paired control (words),corneal tissues; [6],increased significantly; also recorded: slightly increased; also recorded: Statistical significance
same,second harmonic generation signal intensity change vs paired control (words),corneal tissues; [6],decreased significantly; also recorded: statistically significant decreases; also recorded: Statistical significance
same,autofluorescence signal intensity change vs paired control (words),corneal tissues; [7],increased significantly; also recorded: slightly increased; also recorded: Statistical significance
same,second harmonic generation signal intensity change vs paired control (words),corneal tissues; [7],decreased significantly; also recorded: statistically significant decreases; also recorded: Statistical significance
same,autofluorescence signal intensity change vs paired control (words),corneal tissues; [8],increased
same,second harmonic generation signal intensity change vs paired control (words),corneal tissues; [8],decreased
